Where two headings read alike, the source gives them in different places.
Legend:
[1] = tested on: LP-BM5 murine leukemia virus (MuLV); test: MAIDS development in LP-BM5 infected mice after a single dose of vinblastine at different times post infection; assay type: in vivo, C57BL/6 mice
Description: A murine AIDS (MAIDS) pathology induced by LP-BM5 murine leukemia virus (MuLV) in susceptible mice is an effective tool to investigate mechanisms of retrovirus-induced immunodeficiency. […] Infection of a susceptible strain such as C57BL/6 mice with LP-BM5 leads to chronic splenomegaly, hypergammaglobulinaemia and development of immunodeficiency in both T and B cells. In vitro, there is a progressive impairment in the responsiveness of T-cells and B-cells to mitogenic or specific antigenic stimuli. In vivo, infected mice become increasingly susceptible to challenge with a variety of opportunistic organisms and can develop B-cell lymphoma. Deaths are first observed at 8-10 weeks post-infection (pi), and all mice die within 24 weeks (FIG. 1). These alterations in immune function reflect complex changes in the phenotype and function of all components of the immune network.
The treatment with a single dose of the anti-mitotic agent vinblastine (Vb) at different times pi is able to prevent the development/progression of MAIDS. […] Clearly, the Vb treatment is remarkably therapeutic when administered at 6 hr or 14 days pi with 100% ( 10/10) and 74% ( 20/27) of mice, respectively, showing no signs of MAIDS development at 10 weeks pi (as determined by spleen weight, histology and FACS analysis). […] Additional experiments have provided results of 100% of mice having no signs of MAIDS development at least 12 months after Vb treatment 14 days pi (data not shown). Although not as pronounced as the protection seen after day 14 treatment, moderate protection from MAIDS development was still observed. […] The total protection from MAIDS development seen in mice given Vb at 6 hrs pi is not unexpected as the virus replicates in actively replicating cells which are the target of the anti-mitotic drug thus any cells infected with the virus are killed by the Vb preventing the virus from rapidly establishing an infection in the host. However, the highly protective effect observed after a single treatment with Vb at 14 days pi is quite remarkable as, by this stage, the viral infection is well established and the early disease processes are well underway. We propose that this highly therapeutic effect is due to the Vb targeting a particular subset of immune regulator cells during their expansion phase and thereby altering the immune response to the viral infection. […] This leads to long term disease free survival for many months post-infection and treatment.
Spleens from the Day 14 pi Vb treated mice as well as infected and uninfected control mice were weighed and examined histologically. The splenic architecture of all MAIDS infected mice was profoundly disorganised as previously reported (Hartley et al., 1989).

MAIDS virus [2] = test: Rechallenge with MAIDS virus following protective vinblastine therapy; assay type: in vivo, mice; conditions: Vb at day 14 pi, rechallenge at 3 or 8 weeks post Vb treatment
Description: To determine if mice protected from MAIDS by the day 14 pi Vb treatment develop an immune response which would then protect them from a subsequent rechallenge with the MAIDS virus groups of mice, given the Vb therapy at day 14 pi, were rechallenged with the MAIDS virus at 3 or 8 weeks post Vb treatment. […] This is not an unexpected result as the dominant immunosuppression by the regulator population of cells would have been restored as a consequence of the immune effector response to the second (untreated) infection.

[3] = tested on: CD4+, CD8+ and CD25+CD4+ T cells of spleen; test: FACS analysis of spleen cells following Vb therapy on day 14 post infection; assay type: in vivo, mice
Procedure: FACS analysis of CD4^+ and CD8^+ T cells prepared from spleens of mice treated with Vb on Day 14 pi was performed (FIG. 6). CD25^+CD4^+ T cells were also examined as they have recently been identified as having an important regulatory function in mouse models of autoimmune disease and tumour immunology (Takahashi et al., 1998; Shimizu et al., 1999). It is possible that these cells may play a role in the regulation of the immune response to MAIDS. Day 14 pi and uninfected control mice were given Vb therapy and the spleens collected at 48 hours post Vb treatment.

MAIDS virus [4] = test: Spleen cell transfer into MAIDS infected, day 14 Vb treated mice; assay type: in vivo
Description: The experiments illustrated in FIG. 7 were designed to determine if a single dose of Vb, administered at 14 days pi, is eliminating a population of expanding CD4^+regulator T cells and thereby releasing effector cells from down-regulation and clearing the host of the MAIDS virus.
Mice were infected with MAIDS, received day 14 pi Vb treatment and then received an adoptive transfer of ~10^7 spleen cells from donor mice prepared as outlined in FIG. 7. For each experiment [designated (I), (II) and (III)] groups consisted of 7 recipient mice and 9 donor mice. Mice in Group I received whole spleens from infected mice that had not received any Vb treatment. Mice in Group II received whole spleen cell preparations, from infected mice, that had been depleted of CD4^+ cells using a FACS cell sorter after staining with fluorochrome-labeled anti-CD4 monoclonal antibody. […] Mice in Group III received whole spleens from infected donor mice that also received Vb treatment on day 14 pi.

MAIDS virus [5] = test: Adoptive transfer of CD4+ CD25+/- cells into MAIDS infected, day 14 Vinblastine treated mice; assay type: in vivo; conditions: uninfected donor cells into MAIDS-infected day 14 Vb-treated recipients; n=5
Description: An adoptive transfer experiment was designed to directly test the hypothesis that CD4+ CD25+ T cells are functioning as the regulator cells in the murine AIDS model. The same approach used to determine that the regulator cells are CD4+ T cells was used to test whether the CD4+ CD25+ subset are the target of day 14 Vinblastine treatment. […] 2.0×10^6 cells of the regulator CD4+ CD25+ phenotype were purified from single cell suspensions of donor spleens using MACS beads (Miltenyi Biotec) using two positive selection steps. The cells were then tested for purity by flow cytometry (both CD4+ CD25+ and CD4+ CD25− fractions were of >90% purity) and viability using trypan blue exclusion prior to transfer into uninfected (control) and MAIDS infected day 14 Vinblastine treated mice. CD4+ CD25− cells were also transferred to allow that the regulator cells may not present in the CD25+ fraction and also to allow for the possibility that these putative regulator cells may lose CD25 expression as they expand and become activated as was reported by Gavin et al., 2002.
Mice receiving adoptive transfer of cells were either uninfected (control) or MAIDS infected and day 14 Vinblastine treated to examine whether the transfer of cells would result in disease progression. […] Disease progression was assessed by spleen weight at 10 weeks post MAIDS infection.

murine T cell lymphoma = conditions: cited from earlier work

Structure (SMILES): CC[C@]1(O)C[C@@H]2CN(CCc3c([nH]c4ccccc34)[C@@](C(=O)OC)(c3cc4c(cc3OC)N(C)[C@H]3[C@@](O)(C(=O)OC)[C@H](OC(C)=O)[C@]5(CC)C=CCN6CC[C@]43[C@@H]65)C2)C1 [Vb, vinblastine]
- mice protected from any splenomegaly at 20 weeks pi ([1]; Vb at day 14 pi, 4/5 mice): 80%
- mice having no signs of MAIDS development at least 12 months after treatment ([1]; Vb treatment 14 days pi, additional experiments, data not shown): 100%
- splenic architecture (histology) at 10 weeks pi ([1]; day 14 pi Vb treated mice with normal spleen weights (below 0.25 g)): indistinguishable from that of uninfected control mice
- FACS analysis of spleen cells: cellular proportions (CD4+, CD8+ and B cells) and distributions at 10 weeks pi ([1]; day 14 pi Vb treated mice, preliminary, data not shown): like those observed in normal uninfected mice
- mice showing no signs of MAIDS development at 10 weeks pi (spleen weight, histology, FACS analysis) ([1]; single 6 mg/kg i.p. dose at 6 hr pi, 10/10 mice): 100%
- mice showing protective effect (no signs of MAIDS) at 10 weeks pi ([1]; single 6 mg/kg i.p. dose at 6 days pi, 6/13 mice): 46%
- mice showing no signs of MAIDS development at 10 weeks pi (spleen weight, histology, FACS analysis) ([1]; single 6 mg/kg i.p. dose at 14 days pi, 20/27 mice): 74%
- protection against MAIDS development ([1]; single 6 mg/kg i.p. dose at day 2 pi): no protection against MAIDS development
- protection against MAIDS development ([1]; single 6 mg/kg i.p. dose at day 7 pi): no protection against MAIDS development
- protection from viral rechallenge (splenomegaly, lymphadenopathy at 20 weeks) (MAIDS virus [2]): not protected from viral rechallenge
- cell subsets targeted in MAIDS infected mice (uninfected to infected ratios) ([3]; CD4+ T cells and CD25+CD4+ T cells, 48 hours post Vb at day 14 pi): preferentially targeted
- effect on spleen cell subsets ([3]; spleens collected 48 hours post Vb, day 14 pi and uninfected mice): all cell subsets are reduced
- protection from MAIDS development after spleen cell transfer (MAIDS virus [4]; Group I: ~10^7 whole spleen cells from MAIDS infected donors without Vb): completely prevented Vb from protecting mice from MAIDS development
- protection from MAIDS development after spleen cell transfer (MAIDS virus [4]; Group II: donor spleen cells depleted of CD4+ cells by FACS sorting): the protective effect of Vb was not overcome
- protection from MAIDS development after spleen cell transfer (MAIDS virus [4]; Group III: spleen cells from infected donors also given day 14 Vb): fully protected from MAIDS development
- disease progression (spleen weight at 10 weeks post MAIDS infection) after transfer of CD4+ CD25+/- cells (MAIDS virus [5]): disease progression was readily apparent
- effect on tumour (murine T cell lymphoma; single dose at day 10 following tumour inoculation): enhancement
- effect on tumour (murine T cell lymphoma; single dose at days 4, 6, 13 and 15 following tumour inoculation): regression
